ChEMBL document CHEMBL3045556, “Effect of temperature on the toxicity of several insecticides to Apolygus lucorum (Heteroptera: Miridae)” (2012)
Converted amounts (≈) assume the structure as drawn.

How the values were obtained:
Format in all cases: functional
Apolygus lucorum [1] = assay: Ratio of LC50 for third-instar Apolygus lucorum reared in asparagus bean pod at 15 degC to LC50 for third-instar Apolygus lucorum reared in asparagus bean pod at 20 degC
Apolygus lucorum [2] = assay: Insecticidal activity against third-instar Apolygus lucorum reared in asparagus bean pod assessed as mortality administered by dipping pods in compound solution measured after 48 hr at 35 degC
Apolygus lucorum [3] = assay: Insecticidal activity against third-instar Apolygus lucorum reared in asparagus bean pod assessed as mortality administered by dipping pods in compound solution measured after 48 hr at 30 degC
Apolygus lucorum [4] = assay: Insecticidal activity against third-instar Apolygus lucorum reared in asparagus bean pod assessed as mortality administered by dipping pods in compound solution measured after 48 hr at 25 degC
Apolygus lucorum [5] = assay: Insecticidal activity against third-instar Apolygus lucorum reared in asparagus bean pod assessed as mortality administered by dipping pods in compound solution measured after 48 hr at 20 degC
Apolygus lucorum [6] = assay: Insecticidal activity against third-instar Apolygus lucorum reared in asparagus bean pod assessed as mortality administered by dipping pods in compound solution measured after 48 hr at 15 degC
Apolygus lucorum [7] = assay: Ratio of LC50 for third-instar Apolygus lucorum reared in asparagus bean pod at 15 degC to LC50 for third-instar Apolygus lucorum reared in asparagus bean pod at 25 degC
Apolygus lucorum [8] = assay: Ratio of LC50 for third-instar Apolygus lucorum reared in asparagus bean pod at 15 degC to LC50 for third-instar Apolygus lucorum reared in asparagus bean pod at 35 degC
Apolygus lucorum [9] = assay: Ratio of LC50 for third-instar Apolygus lucorum reared in asparagus bean pod at 15 degC to LC50 for third-instar Apolygus lucorum reared in asparagus bean pod at 30 degC
Apolygus lucorum [10] = assay: Ratio of LC50 for third-instar Apolygus lucorum reared in asparagus bean pod at 35 degC to LC50 for third-instar Apolygus lucorum reared in asparagus bean pod at 15 degC
Apolygus lucorum [11] = assay: Ratio of LC50 for third-instar Apolygus lucorum reared in asparagus bean pod at 30 degC to LC50 for third-instar Apolygus lucorum reared in asparagus bean pod at 15 degC
Apolygus lucorum [12] = assay: Ratio of LC50 for third-instar Apolygus lucorum reared in asparagus bean pod at 20 degC to LC50 for third-instar Apolygus lucorum reared in asparagus bean pod at 15 degC
Apolygus lucorum [13] = assay: Ratio of LC50 for third-instar Apolygus lucorum reared in asparagus bean pod at 25 degC to LC50 for third-instar Apolygus lucorum reared in asparagus bean pod at 15 degC

SMILES	RatioLC50 (Apolygus lucorum [1])	LC50 (Apolygus lucorum [2]) [µg/mL]	LC50 (Apolygus lucorum [3]) [µg/mL]	LC50 (Apolygus lucorum [4]) [µg/mL]	LC50 (Apolygus lucorum [5]) [µg/mL]	LC50 (Apolygus lucorum [6]) [µg/mL]	RatioLC50 (Apolygus lucorum [7])	RatioLC50 (Apolygus lucorum [8])	RatioLC50 (Apolygus lucorum [9])	RatioLC50 (Apolygus lucorum [10])	RatioLC50 (Apolygus lucorum [11])	RatioLC50 (Apolygus lucorum [12])	RatioLC50 (Apolygus lucorum [13])
C/C(=N\C#N)N(C)Cc1ccc(Cl)nc1 [ACETAMIPRID]	1.66	181.95 (≈ 817 µM)	264.02 (≈ 1190 µM)	420.95 (≈ 1890 µM)	972.05 (≈ 4370 µM)	1613.76 (≈ 7250 µM)	3.83	8.87	6.11				
CC1(C)[C@H](C=C(Cl)Cl)[C@H]1C(=O)O[C@@H](C#N)c1cccc(Oc2ccccc2)c1 [BETA-CYPERMETHRIN]		20.78 (≈ 49.9 µM)	28.44 (≈ 68.3 µM)	11.83 (≈ 28.4 µM)	14.86 (≈ 35.7 µM)	0.4 (≈ 0.961 µM)				51.35	70.27	36.72	29.23
CCCCN(CCCC)SN(C)C(=O)Oc1cccc2c1OC(C)(C)C2 [CARBOSULFAN]	2.36	156.75 (≈ 412 µM)	246.4 (≈ 647 µM)	199.4 (≈ 524 µM)	116.07 (≈ 305 µM)	274.15 (≈ 720 µM)	1.37	1.75	1.12				
N#Cc1nn(-c2c(Cl)cc(C(F)(F)F)cc2Cl)c(N)c1[S+]([O-])C(F)(F)F (configuration not stated) [FIPRONIL]		0.1 (≈ 0.229 µM)	0.33 (≈ 0.755 µM)	0.72 (≈ 1.65 µM)	1.69 (≈ 3.87 µM)	0.34 (≈ 0.778 µM)		3.4	1.03			5.76	2.12
CC1(C)C(/C=C(\Cl)C(F)(F)F)C1C(=O)O[C@@H](C#N)c1cccc(Oc2ccccc2)c1 (some centres not stated) [GAMA-CYHALOTHRIN]		95.03 (≈ 211 µM)	72.22 (≈ 161 µM)	27.96 (≈ 62.2 µM)	25.6 (≈ 56.9 µM)	25.28 (≈ 56.2 µM)				3.76	2.86	1.01	1.11
O=[N+]([O-])/N=C1\NCCN1Cc1ccc(Cl)nc1 [IMIDACLOPRID]	2.2	148.05 (≈ 579 µM)	238.47 (≈ 933 µM)	1025.9 (≈ 4010 µM)	1507.97 (≈ 5900 µM)	3324.02 (≈ 13000 µM)	3.24	22.45	13.94				
CNC(=O)ON=C(C)SC [METHOMYL]		731.98 (≈ 4510 µM)	1108.75 (≈ 6840 µM)	895.41 (≈ 5520 µM)	564.28 (≈ 3480 µM)	482.96 (≈ 2980 µM)				1.52	2.3	1.17	1.85
CCOP(=S)(OCC)O/N=C(\C#N)c1ccccc1 [PHOXIM]	1.27	173.53 (≈ 582 µM)	196.5 (≈ 659 µM)	237.93 (≈ 798 µM)	156.17 (≈ 524 µM)	198.24 (≈ 665 µM)		1.14	1.01				1.2
